Laboratory results from patent publication US20100331349A1, “Use of gamma-aminobutyric acid to mask or reduce an unpleasant flavour impression and preparations containing gamma-aminobutyric” (Symrise GmbH & Co. KG, priority 2004, published 2010).

Columns and labels:
[1] = WO 00/21390; cited from earlier work
[2] = Masking or reduction of unpleasant (bitter) flavour impression in preparations, rated by a group of experts; conditions: against caffeine, quinine, naringin, potassium chloride, magnesium sulfate, beta-lactam antibiotics
Experimental: To quantify the reduction in the bitter impression with the use of γ-aminobutyric acid, the bitterness of a 500 ppm caffeine solution (comparative solution; not according to the invention) and of four samples according to the invention containing 500 ppm of caffeine and differing amounts of γ-aminobutyric acid was determined by a group of experts (rating 0 [not bitter] to 10 [extremely bitter]).
To quantify the reduction in the bitter impression, the bitterness of a 12.5 ppm quinine hydrochloride solution (comparative solution; not according to the invention) and of eight samples according to the invention containing 12.5 ppm of quinine hydrochloride and differing amounts of γ-aminobutyric acid was determined by a group of experts (rating 0 [not bitter] to 5 [extremely bitter]).
To quantify the reduction in the bitter impression, the bitterness of (a) a 500 ppm caffeine solution (basic solution), (b) a sample containing 500 ppm of caffeine, 100 ppm of homoeriodictyol sodium salt and 20 ppm of γ-aminobutyric acid, and (c) a sample containing 500 ppm of caffeine and 20 ppm of γ-aminobutyric acid was determined by a group of experts (rating 1 [not bitter] to 10 [extremely bitter]). […]

Row | Molecule | concentration needed as bitterness-masking agent [1] | concentration in preparations at which the unpleasant, in particular bitter, flavour impression is reduced or completely suppressed [2]
1 | polyglutamic acid | around 1 wt. % | –
2 | NCCCC(=O)O [γ-aminobutyric acid] | – | less than 0.1 wt. %
